In the assay the test system is L1210 leukemia ip in BDF1 mice, survival T/C. Put plainly: NCI In Vivo Anticancer Drug Screen. Data for tumor model L1210 Leukemia (intraperitoneal) in B6D2F1 (BDF1) mice. Particulars: endpoint: mean survival time, higher = longer survival. The essentials:
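Read-out is survival time, reported as the treated-group measurement over the vehicle-control measurement.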

[1] abbreviates: dose: 100.0 mg/kg/injection, schedule: Q01DX001 (ip), vehicle: carboxymethylcellulose (CMC).
[2] abbreviates: dose: 200.0 mg/kg/injection, schedule: Q01DX001 (ip), vehicle: carboxymethylcellulose (CMC).
Setting [3] is: dose: 400.0 mg/kg/injection, schedule: Q01DX001 (ip), vehicle: carboxymethylcellulose (CMC).
Setting [4] is: dose: 100.0 mg/kg/injection, schedule: Q04DX002 (ip), vehicle: saline.
Setting [5] is: dose: 200.0 mg/kg/injection, schedule: Q04DX002 (ip), vehicle: saline.
[6] abbreviates: dose: 400.0 mg/kg/injection, schedule: Q04DX002 (ip), vehicle: saline.
Setting [7] is: dose: 100.0 mg/kg/injection, schedule: Q04DX003 (ip), vehicle: Klucel (hydroxypropylcellulose) (HPC).
[8] abbreviates: dose: 200.0 mg/kg/injection, schedule: Q04DX003 (ip), vehicle: Klucel (hydroxypropylcellulose) (HPC).
The mark [9] stands for this setting: dose: 400.0 mg/kg/injection, schedule: Q04DX003 (ip), vehicle: Klucel (hydroxypropylcellulose) (HPC).
The mark [10] stands for this setting: dose: 100.0 mg/kg/injection, schedule: Q01DX001 (ip), vehicle: saline.
Where [11] appears, read: dose: 200.0 mg/kg/injection, schedule: Q01DX001 (ip), vehicle: saline.
The mark [12] stands for this setting: dose: 400.0 mg/kg/injection, schedule: Q01DX001 (ip), vehicle: saline.
Where [13] appears, read: dose: 100.0 mg/kg/injection, schedule: Q01DX001 (ip), vehicle: other.
The mark [14] stands for this setting: dose: 100.0 mg/kg/injection, schedule: Q04DX002 (ip), vehicle: Klucel (hydroxypropylcellulose) (HPC).
Where [15] appears, read: dose: 200.0 mg/kg/injection, schedule: Q04DX002 (ip), vehicle: Klucel (hydroxypropylcellulose) (HPC).
Where [16] appears, read: dose: 400.0 mg/kg/injection, schedule: Q04DX002 (ip), vehicle: Klucel (hydroxypropylcellulose) (HPC).
The mark [17] stands for this setting: dose: 100.0 mg/kg/injection, schedule: Q04DX003 (ip), vehicle: saline with Tween-80.
The mark [18] stands for this setting: dose: 200.0 mg/kg/injection, schedule: Q04DX003 (ip), vehicle: saline with Tween-80.
[19] abbreviates: dose: 400.0 mg/kg/injection, schedule: Q04DX003 (ip), vehicle: saline with Tween-80.

Molecules are shown by their SMILES. Values joined by “and” are separate entries in the source; they are usually repeats but may differ in a detail not shown here. Equal entries are not always repeated. Toxic doses and inconclusive results are not listed.

Regarding `O=C1NC(Cc2ccc(O)cc2)C(=O)N1c1ccccc1O` (stereo unspecified), the T/C runs as follows: under setting [1], 96 % of control; under setting [2], 96 % of control; under setting [3], 94 % of control.

With `O=C(CC(=O)NO)NO`, the T/C by setting is: (dose: 100.0 mg/kg/injection, schedule: Q04DX002 (ip), vehicle: saline with Tween-80) 103 % of control; under setting [4], 97 % of control; (dose: 200.0 mg/kg/injection, schedule: Q04DX002 (ip), vehicle: saline with Tween-80) 97 % of control; under setting [5], 100 % of control; (dose: 400.0 mg/kg/injection, schedule: Q04DX002 (ip), vehicle: saline with Tween-80) 97 % of control; under setting [6], 100 % of control.

For the molecule `COC1(OC)C2(Cl)C(Cl)=C(Cl)C1(Cl)C1C2CS1(=O)=O` (stereo unspecified), the T/C by setting is: (dose: 50.0 mg/kg/injection, schedule: Q01DX001 (ip), vehicle: carboxymethylcellulose (CMC)) 100 % of control; under setting [1], 92 % of control; under setting [2], 100 % of control; under setting [3], 89 % of control.

Consider `CC[Si](CC)(CC)C(C)Cl` (stereo unspecified), for which the T/C is, setting by setting: under setting [7], 101 % of control; under setting [8], 101 % of control; under setting [9], 98 % of control.

Consider `CCCCCCCCCCCCCCCCOc1ccc(CC)cc1`, for which the T/C under setting [7] is 91 % of control.

Take `O=c1[nH]cnc2ccc([N+](=O)[O-])cc12`: the T/C is, setting by setting: (dose: 50.0 mg/kg/injection, schedule: Q04DX003 (ip), vehicle: Klucel (hydroxypropylcellulose) (HPC)) 101 % of control; under setting [7], 103 % of control.

Turning to `O=C(O)c1c(CN2CCOCC2)c(O)c(O)c(O)c1CN1CCOCC1`, the T/C is, setting by setting: under setting [10], 103 % of control; under setting [11], 107 % of control; under setting [12], 103 % of control.

As to `CCCC(C)Cc1ccc(C(=O)O)cc1` (stereo unspecified), the T/C (dose: 100.0 mg/kg/injection, schedule: Q01DX009 (ip), vehicle: Klucel (hydroxypropylcellulose) (HPC)) is 95 % of control; the T/C under setting [7] was 97 % of control; the T/C (dose: 200.0 mg/kg/injection, schedule: Q01DX009 (ip), vehicle: Klucel (hydroxypropylcellulose) (HPC)) was 104 % of control; the T/C under setting [8] is 103 % of control; the T/C under setting [9] was 107 % of control.

Consider `ClCC[N-]CC[N-]CCCl.ClCC[N-]CC[N-]CCCl.[O-][Cl+3]([O-])([O-])O.[Zn+2]`, for which the T/C reads like this: (dose: 5.0 mg/kg/injection, schedule: Q01DX009 (ip), vehicle: Klucel (hydroxypropylcellulose) (HPC)) 102 % of control; (dose: 5.0 mg/kg/injection, schedule: Q03DX003 (ip), vehicle: saline) 95 % of control; (dose: 5.0 mg/kg/injection, schedule: Q## X003 (ip), vehicle: saline) 95 % of control; (dose: 9.0 mg/kg/injection, schedule: Q01DX009 (ip), vehicle: Klucel (hydroxypropylcellulose) (HPC)) 94 % of control; (dose: 10.0 mg/kg/injection, schedule: Q01DX009 (ip), vehicle: Klucel (hydroxypropylcellulose) (HPC)) 97 % of control; (dose: 10.0 mg/kg/injection, schedule: Q03DX003 (ip), vehicle: saline) 104 % of control. The T/C reads like this: (dose: 10.0 mg/kg/injection, schedule: Q## X003 (ip), vehicle: saline) 104 % of control; (dose: 18.0 mg/kg/injection, schedule: Q01DX009 (ip), vehicle: Klucel (hydroxypropylcellulose) (HPC)) 100 % of control; (dose: 20.0 mg/kg/injection, schedule: Q01DX009 (ip), vehicle: Klucel (hydroxypropylcellulose) (HPC)) 116 % of control; (dose: 20.0 mg/kg/injection, schedule: Q03DX003 (ip), vehicle: saline) 121 % of control; (dose: 20.0 mg/kg/injection, schedule: Q## X003 (ip), vehicle: saline) 121 % of control; (dose: 40.0 mg/kg/injection, schedule: Q03DX003 (ip), vehicle: saline) 161 % of control. For the same molecule, the T/C was 161 % of control (dose: 40.0 mg/kg/injection, schedule: Q## X003 (ip), vehicle: saline) and 80 % of control (dose: 80.0 mg/kg/injection, schedule: Q03DX003 (ip), vehicle: saline).

For the molecule `CCc1c(CBr)c(=O)[nH]c2ccccc12`, the T/C under setting [13] was 96 % of control.

As to `Oc1ccc(O)c(-c2cc3c(O)ccc(O)c3[nH]2)c1`, the T/C was 104 % of control (dose: 25.0 mg/kg/injection, schedule: Q04DX002 (ip), vehicle: Klucel (hydroxypropylcellulose) (HPC)); 93 % of control (dose: 50.0 mg/kg/injection, schedule: Q04DX002 (ip), vehicle: Klucel (hydroxypropylcellulose) (HPC)); 104 % of control under setting [14]; 96 % of control under setting [15].

`CC1(N)CC2CCC1C2` (stereo unspecified): the T/C runs as follows: (dose: 100.0 mg/kg/injection, schedule: Q04DX003 (ip), vehicle: saline) 96 % of control; (dose: 200.0 mg/kg/injection, schedule: Q04DX003 (ip), vehicle: saline) 92 % of control.

For `CCCNC(=O)Oc1ccc2ccccc2c1`, the T/C reads like this: under setting [13], 103 % of control; (dose: 100.0 mg/kg/injection, schedule: Q01DX009 (ip), vehicle: other) 93 % of control and 100 % of control; under setting [14], 95 % of control; (dose: 100.0 mg/kg/injection, schedule: Q04DX002 (ip), vehicle: other) 100 % of control and 101 % of control; (dose: 200.0 mg/kg/injection, schedule: Q01DX001 (ip), vehicle: other) 94 % of control; (dose: 200.0 mg/kg/injection, schedule: Q01DX009 (ip), vehicle: other) 94 % of control and 116 % of control. The T/C under setting [15] was 103 % of control; the T/C (dose: 200.0 mg/kg/injection, schedule: Q04DX002 (ip), vehicle: other) is 93 % of control and 95 % of control; the T/C (dose: 400.0 mg/kg/injection, schedule: Q01DX001 (ip), vehicle: other) was 101 % of control; the T/C (dose: 400.0 mg/kg/injection, schedule: Q01DX009 (ip), vehicle: other) was 93 % of control and 94 % of control; the T/C under setting [16] was 100 % of control; the T/C (dose: 400.0 mg/kg/injection, schedule: Q04DX002 (ip), vehicle: other) is 93 % of control and 96 % of control.

As for `CCOC(=O)C(C)(CCC#N)C(=O)OCC`, the T/C under setting [10] is 95 % of control; the T/C under setting [4] was 101 % of control; the T/C under setting [11] is 95 % of control; the T/C under setting [5] was 105 % of control; the T/C under setting [12] is 95 % of control; the T/C under setting [6] was 105 % of control.

Take `CCOC(=O)CCC(NC(=O)c1ccc(I)cc1)C(=O)OCC` (stereo unspecified): the T/C is 94 % of control under setting [7], 96 % of control under setting [8] and 102 % of control under setting [9].

As to `CCCNC(=O)Nc1ccc(S(N)(=O)=O)cc1`, the T/C is, setting by setting: under setting [14], 97 % of control; under setting [15], 97 % of control; under setting [16], 87 % of control.

For `Nc1ncnc2c1nc(N)n2C1OC(CO)C(O)C1O` (stereo unspecified), the T/C under setting [10] is 115 % of control and 104 % of control; the T/C under setting [11] is 123 % of control and 104 % of control; the T/C under setting [12] is 98 % of control.

`S=C(Nc1ccccc1)Sc1ccc(Cl)cc1`: the T/C is 96 % of control (dose: 25.0 mg/kg/injection, schedule: Q04DX003 (ip), vehicle: saline with Tween-80); 92 % of control (dose: 50.0 mg/kg/injection, schedule: Q04DX003 (ip), vehicle: saline with Tween-80); 101 % of control under setting [17].

As to `COC(=O)C1(C)COP(=O)(O)OC1` (stereo unspecified) (tested in a mixture with another compound), the T/C by setting is: under setting [10], 91 % of control and 107 % of control and 100 % of control; under setting [11], 94 % of control and 96 % of control and 97 % of control; under setting [12], 89 % of control and 105 % of control and 107 % of control.

With `CCOC(=O)n1ccn2cncc2c1=O`, the T/C is 86 % of control (dose: 100.0 mg/kg/injection, schedule: Q01DX009 (ip), vehicle: saline with Tween-80); 95 % of control under setting [17]; 101 % of control under setting [18]; 95 % of control under setting [19].

As for `CC(O)(C(=O)c1ccccc1)c1ccc(Cl)cc1` (stereo unspecified), the T/C runs as follows: under setting [7], 95 % of control; under setting [8], 98 % of control; under setting [9], 101 % of control.

As to `COC1OC(COC(c2ccccc2)(c2ccccc2)c2ccccc2)C(OC)C(OC)C1OC` (stereo unspecified), the T/C reads like this: under setting [17], 93 % of control; under setting [18], 94 % of control; under setting [19], 88 % of control.

These data come from PubChem BioAssay AID248 (DTP/NCI, 2004).
